Calls of active or inactive are those of the source. The calls are words filed in the database; no cut-off is given here.
What was measured:
Plasmodium falciparum [1] = assay: Antimalarial activity against Chloroquine-resistant Plasmodium falciparum W2 assessed as parasite growth inhibition after 72 hrs by lactate dehydrogenase assay; format: functional, organism-based; conditions: W2, 72 h
Plasmodium falciparum [2] = assay: Antimalarial activity against Chloroquine-sensitive Plasmodium falciparum D10 assessed as parasite growth inhibition after 72 hrs by lactate dehydrogenase assay; format: functional, organism-based; conditions: D10, 72 h
[3] = molecular target: Plasmepsin II (Plasmodium falciparum) (UniProt P46925); assay: Inhibition of Plasmodium falciparum recombinant PLM2 expressed in Escherichia coli BL21(DE3) pLysS cells using Lys-GluPhe-Val-Phe-NPhe-Ala-Leu-Lys as substrate at 1 uM by spectrophotometry
Plasmepsin II (Plasmodium falciparum), sequence (P46925 125-453 limits assumed): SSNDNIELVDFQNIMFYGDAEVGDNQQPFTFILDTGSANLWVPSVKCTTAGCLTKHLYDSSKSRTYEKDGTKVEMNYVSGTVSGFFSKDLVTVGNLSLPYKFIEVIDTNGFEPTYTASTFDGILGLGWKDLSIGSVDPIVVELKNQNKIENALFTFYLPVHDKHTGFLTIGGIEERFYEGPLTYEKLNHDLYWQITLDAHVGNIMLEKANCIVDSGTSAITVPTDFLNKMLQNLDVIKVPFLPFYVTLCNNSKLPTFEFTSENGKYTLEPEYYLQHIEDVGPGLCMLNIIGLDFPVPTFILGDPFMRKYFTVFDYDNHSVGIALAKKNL

[4] = Inhibition of beta-haematin formation after 18 hrs by spectrophotometric analysis relative to haematin; format: physicochemical
[5] = Therapeutic index, ratio of IC50 for human fibroblasts to IC50 for Chloroquine-sensitive Plasmodium falciparum D10; conditions: read-out: Ratio IC50
[6] = Therapeutic index, ratio of IC50 for HMEC1 cells to IC50 for Chloroquine-resistant Plasmodium falciparum W2; format: cell-based; conditions: human; read-out: Ratio IC50
[7] = Therapeutic index, ratio of IC50 for HMEC1 cells to IC50 for Chloroquine-sensitive Plasmodium falciparum D10; format: cell-based; conditions: human; read-out: Ratio IC50
[8] = Cytotoxicity against human fibroblasts assessed as growth inhibition after 72 hrs by MTT assay; format: cell-based; conditions: Fibroblast
[9] = Therapeutic index, ratio of IC50 for human fibroblasts to IC50 for Chloroquine-resistant Plasmodium falciparum W2; conditions: read-out: Ratio IC50
[10] = Cytotoxicity against human HMEC1 cells assessed as growth inhibition after 72 hrs by MTT assay; format: cell-based; conditions: HMEC-1, 72 h

| SMILES | IC50 (Plasmodium falciparum [1]) | IC50 (Plasmodium falciparum [2]) | inhibition [3] | IC50 [4] [equiv] | IC50 [8] [nM] | other results |
| --- | --- | --- | --- | --- | --- | --- |
| CCN(CC)CCNC(=O)[C@H](CC(C)C)NC(=O)c1ccc(Oc2ccccc2)cc1 | > 5 µg/mL | > 5 µg/mL | – | – | – | – |
| CCCCNC(=O)[C@H](CC(C)C)NC(=O)[C@@H](NC(=O)c1ccc(Oc2ccc(C(=O)N[C@@H](CC(C)C)C(=O)N[C@@H](C)C(=O)NCCCNc3ccnc4ccccc34)cc2)cc1)[C@@H](C)CC | 54 nM | 63 nM | inactive | – | – | – |
| CCN(CC)CCCC(C)Nc1ccnc2cc(Cl)ccc12 (stereo not drawn) [CHLOROQUINE] | – | – | – | 1.36 | – | – |
| COc1cc(NC(C)CCCN)c2ncccc2c1 (stereo not drawn) [PRIMAQUINE] | – | – | – | > 10 | – | – |
| CCCCNC(=O)[C@H](CC(C)C)NC(=O)[C@@H](NC(=O)c1ccc(Oc2ccc(C(=O)N[C@@H](C)C(=O)NCCCNc3ccnc4cc(Cl)ccc34)cc2)cc1)[C@@H](C)CC | 39 nM | 43 nM | inactive | 0.79 | 18000 | selectivity ratio [5]: 450; selectivity ratio [6]: 450; selectivity ratio [7]: 450; selectivity ratio [9]: 450; IC50 [10]: 17600 nM |
| CCCCNC(=O)[C@H](CC(C)C)NC(=O)[C@@H](NC(=O)c1ccc(Oc2ccc(C(=O)N[C@@H](CC(C)C)C(=O)N[C@@H](C)C(=O)NCCCC(C)Nc3cc(OC)cc4cccnc34)cc2)cc1)[C@@H](C)CC (stereo partly drawn) | 104 nM | 37 nM | inactive | > 8 | – | – |
| CCCCNC(=O)[C@H](CC(C)C)NC(=O)c1ccc(Oc2ccc(C(=O)N[C@@H](CC(C)C)C(=O)NCCN(CC)CC)cc2)cc1 | 314 nM | 357 nM | – | – | 23000 | – |
| CCCCNC(=O)[C@H](CC(C)C)NC(=O)[C@@H](NC(=O)c1ccc(Oc2ccc(C(=O)N[C@@H](CC(C)C)C(=O)NCCCN(CC)CC)cc2)cc1)[C@@H](C)CC | 103 nM | 121 nM | – | – | 16300 | selectivity ratio [5]: > 100; selectivity ratio [9]: > 100 |
| CCCCNC(=O)[C@H](CC(C)C)NC(=O)[C@@H](NC(=O)c1ccc(Oc2ccc(C(=O)N[C@H](C(=O)N[C@@H](CC(C)C)C(=O)NCCCC)[C@@H](C)CC)cc2)cc1)[C@@H](C)CC | 1620 nM | 1980 nM | – | – | – | – |
| CCCCNC(=O)[C@H](CC(C)C)NC(=O)[C@@H](NC(=O)c1ccc(Oc2ccc(C(=O)N[C@@H](CC(C)C)C(=O)N[C@@H](C)C(=O)NCCN(CC)CC)cc2)cc1)[C@@H](C)CC | 143 nM | 345 nM | – | – | – | – |

— ChEMBL document CHEMBL3739421, “Discovery of oxybisbenzoylamides as a new class of antimalarial agents” (Medchemcomm, 2015)
